According to the METLIN SMRT retention time set (Domingo-Almenara et al. 2019):

Assay: gradient 5% acetonitrile 3 min, to 50% in 2 min, to 85% in 15 min, held 3 min, 100 µL/min
Details: column: Zorbax Extend-C18 2.1 x 50 mm; eluents: water / acetonitrile, 0.1% formic acid
Outline: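 Values are retention times taken from adduct peaks that software picked and an analyst inspected. The pure standards were run as mixtures of ~100 molecules on HPLC linked to a quadrupole time-of-flight mass spectrometer, in positive and negative ionization mode. A Zorbax Extend-C18 column (2.1 × 50 mm, 1.8 μm) was used at 100 μL/min with water and acetonitrile, each including 0.1% formic acid.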

SMILES: Cc1sc(NC(=O)Cc2csc(-c3ccccc3)n2)nc1-c1ccc(Br)cc1
- RP-LC retention time: 1270 s

SMILES: O=c1n(Cc2ccc(Cl)cc2)nc2c(S(=O)(=O)N3CCCCCC3)cccn12
- RP-LC retention time: 991 s

SMILES: CCCNc1cc(N2CCCC(CCC(=O)Nc3ccc(OC)c(OC)c3)C2)ncn1 (configuration not stated)
- RP-LC retention time: 667 s

SMILES: CCc1ccc(N2C(=O)CN(S(C)(=O)=O)CC2(C)C(=O)NC2CCCCCCC2)cc1 (configuration not stated)
- RP-LC retention time: 1000 s

SMILES: Cc1oc(-c2ccc(NC(=O)c3ccc(Br)o3)cc2)nc1Cn1cccn1
- RP-LC retention time: 901 s

SMILES: O=C(Cn1cccc(-c2nc(-c3ccc(Br)cc3)no2)c1=O)Nc1ccccc1
- RP-LC retention time: 968 s

SMILES: Cc1nn(CC(=O)NCCN2CCOCC2)c(=O)c2c(-n3cccc3)n(-c3ccc(F)cc3)nc12
- RP-LC retention time: 654 s

SMILES: CC(C)c1noc(-c2cc(=O)n(CC(=O)Nc3ccc(F)c(F)c3)c3ccccc23)n1
- RP-LC retention time: 1040 s

SMILES: CCc1ccccc1N(C)C(=O)Cn1ccc2c(=O)n(C)c(=O)n(C)c21
- RP-LC retention time: 735 s

SMILES: COc1ccc(OC)c(-c2nnc(NC(=O)CSc3ccc(Cl)cc3)s2)c1
- RP-LC retention time: 947 s

SMILES: COC(=O)c1ccccc1Nc1c(-c2ccc(N3CCOCC3)cc2)nc2cnccn12
- RP-LC retention time: 874 s

SMILES: CNC(=O)[C@@H]1CN(C(=O)CCc2c(C)noc2C)C[C@H]1c1n[nH]c(C)n1
- RP-LC retention time: 568 s

SMILES: Nc1cc(Nc2ccc(Br)cc2)nc(N)n1
- RP-LC retention time: 688 s

SMILES: Cc1nc(N2CCN(c3ccccn3)CC2)nc2c1C(=O)CC(C)(C)C2
- RP-LC retention time: 677 s

SMILES: CCc1nc2cc(N3CCC(C(=O)NCc4cccs4)CC3)cnc2nc1CC
- RP-LC retention time: 816 s

SMILES: O=C(Nc1ccc(OCc2cc(C(=O)NC3CC3)no2)cc1)c1ccc(Cl)cc1
- RP-LC retention time: 872 s

SMILES: COc1ccc(Cl)cc1NC(=O)C1CCCN1S(=O)(=O)c1cc2c(cc1C)NC(=O)C(C)O2 (configuration not stated)
- RP-LC retention time: 909 s

SMILES: CSc1ccccc1N1CCN(CCCCCC(=O)NC2CCCc3ccccc32)CC1 (configuration not stated)
- RP-LC retention time: 855 s

SMILES: COCCCNC(=O)c1cc(-c2ccc(C)cc2)nc2n[nH]c(-c3ccc(C)cc3)c12
- RP-LC retention time: 881 s

SMILES: Oc1ccc([C@@H]2Oc3ccc(O)cc3[C@@H]3CCC[C@@H]32)cc1
- RP-LC retention time: 866 s

SMILES: COc1cccc(NC(=O)C2CCN(c3c(C)n(C)c(=O)n(C)c3=O)CC2)c1
- RP-LC retention time: 769 s

SMILES: Cc1cc(Nc2cccc(C(C)O)c2)nc(-n2cc([N+](=O)[O-])cn2)n1 (configuration not stated)
- RP-LC retention time: 690 s

SMILES: O=C(Nc1ccc(F)c(Cl)c1)C1CCCN(c2ccnc(-c3ccc(F)cc3)n2)C1 (configuration not stated)
- RP-LC retention time: 780 s

SMILES: COc1ccc(-c2ccnc3nc(Cc4cc(F)cc(F)c4)nn23)c(F)c1
- RP-LC retention time: 973 s

SMILES: Cc1cc(C)c(S(=O)(=O)NCCc2cn(CC(C)C)c3ncccc23)cc1C
- RP-LC retention time: 1040 s

SMILES: Cc1c(C(=O)NC2CC2)cnn1-c1ccc(-c2nc(C3CC3)no2)cn1
- RP-LC retention time: 825 s

SMILES: O=C1NCCC1Cc1ccc(C(F)(F)F)cc1 (configuration not stated)
- RP-LC retention time: 710 s

SMILES: COCCNC(=O)c1cc2c(s1)N(C)CCC2
- RP-LC retention time: 703 s

SMILES: CC1(C)SC(C)(C)N(C=O)C1C(=O)O (configuration not stated)
- RP-LC retention time: 708 s

SMILES: COCCN1C(=O)[C@H]2CN(Cc3cc(Br)ccc3OC)C[C@H]2C1=O
- RP-LC retention time: 633 s

SMILES: CCCc1cc(=O)oc2cc(C)cc(OCC(=O)N[C@H](C(=O)O)C(C)C)c12
- RP-LC retention time: 806 s

SMILES: Cc1nc(-c2cc(S(=O)(=O)N3CCC(C(=O)NCc4ccco4)CC3)c(C)s2)no1
- RP-LC retention time: 837 s

SMILES: CCC(Oc1ccc(=O)n(-c2ccc(F)cc2)n1)C(=O)NCc1ccc(C)o1 (configuration not stated)
- RP-LC retention time: 831 s

SMILES: Cc1c(-c2noc(-c3ccc4cc[nH]c4c3)n2)nnn1-c1ccc(F)cc1
- RP-LC retention time: 996 s

SMILES: Cc1noc(C)c1CC(=O)NCCn1ncc2c(=O)n(Cc3ccc(F)cc3)cnc21
- RP-LC retention time: 640 s

SMILES: Cc1ccc(CNC(=O)Cn2nc(C)c3sc(-c4ccccc4)nc3c2=O)cc1C
- RP-LC retention time: 968 s

SMILES: CSc1nnc(-c2nn(C)c3c2CN(C(=O)c2ccccc2Cl)CC3)n1C
- RP-LC retention time: 710 s

SMILES: O=C1NCCCn2cc(S(=O)(=O)Nc3ccc(Cl)cc3F)cc21
- RP-LC retention time: 678 s

SMILES: CN(C)c1cc2c(cc1NC(=O)Cc1ccccc1Cl)n(C)c(=O)c(=O)n2C
- RP-LC retention time: 754 s

SMILES: O=C(NCCC1=CCCCC1)c1c(OCC2CC2)cc(=O)n2c1CCCCC2
- RP-LC retention time: 887 s

SMILES: COc1ccc(NC(=O)Cn2cccc(-c3nc(-c4ccc(Br)cc4)no3)c2=O)cc1
- RP-LC retention time: 925 s

SMILES: Cc1cc(C(=O)Nc2cccc(Cl)c2)nc2cc(-c3ccco3)nn12
- RP-LC retention time: 1020 s

SMILES: COCCNC(=O)C1CCN(C(=O)c2cc3ccsc3n2Cc2cccc(OC)c2)CC1
- RP-LC retention time: 770 s

SMILES: CCn1c(=O)sc2cc(S(=O)(=O)N3CCC(C(=O)NCc4ccco4)CC3)ccc21
- RP-LC retention time: 792 s

SMILES: O=C(c1cc(-c2cccs2)[nH]n1)N1CCN(c2ccccn2)CC1
- RP-LC retention time: 596 s

SMILES: COc1ccc2cc(C(=O)N3CC(n4cc(COCC5CC5)nn4)C3)[nH]c2c1
- RP-LC retention time: 745 s

SMILES: COc1ccc(C2CC(=O)N(c3ccc(C)cc3)C(=O)C2)cc1OC
- RP-LC retention time: 831 s

SMILES: CCC1CN2C=NC(N3CCN(C(=O)Nc4ccc(OC)cc4)CC3)=CC2=N1 (configuration not stated)
- RP-LC retention time: 600 s

SMILES: CCCS(=O)(=O)N1CCC(N2C[C@H](Oc3ccccc3)[C@@H]2c2ccncc2)CC1
- RP-LC retention time: 685 s

SMILES: Cn1cc(-c2cc3n(n2)CCC(=O)N3CC(=O)NCc2ccccc2)c2ccccc21
- RP-LC retention time: 798 s

SMILES: CCNC(=O)c1ccc(-c2nc3cc(NS(=O)(=O)c4ccc(C(C)C)cc4)ccc3n2C)cc1
- RP-LC retention time: 744 s

SMILES: CCOC(=O)c1ccc(NC(=O)CN2CCN(Cc3ccccc3)C(=O)C2=O)cc1
- RP-LC retention time: 766 s

SMILES: O=C(Cn1cnc2nc(N3CCC(C(=O)NC4CC4)CC3)sc2c1=O)Nc1ccc(Cl)cc1
- RP-LC retention time: 686 s

SMILES: CC(C)(C)c1cc(C(=O)NC2CCCCC2)nc2ccnn12
- RP-LC retention time: 1240 s

SMILES: Cc1cc(N2CCN(C)CC2)nc2ccc(NC(=S)NCCN3CCc4ccccc4C3)cc12
- RP-LC retention time: 538 s

SMILES: COc1ccc(-c2noc(CN3N=NC4C(=O)N(c5cccc(F)c5)C(=O)C43)n2)c(OC)c1 (configuration not stated)
- RP-LC retention time: 610 s

SMILES: COc1ccc(CN2N=C(C(=O)N3CCOCC3)S(=O)(=O)c3ccccc32)cc1F
- RP-LC retention time: 807 s

SMILES: CC(C)c1cnc2c(c1SCc1ccccn1)c(=O)n(C)c(=O)n2C
- RP-LC retention time: 737 s

SMILES: O=C(O)c1cc(-c2ccncc2)nc2ccccc12
- RP-LC retention time: 572 s

SMILES: Cc1ccc(S(=O)(=O)N2CCC(C)(C(=O)NCc3ccc(F)cc3)CC2)cc1
- RP-LC retention time: 942 s

SMILES: COc1ccc(-c2csc3nc[nH]c(=O)c23)cc1
- RP-LC retention time: 671 s

SMILES: CCCCNC(=O)c1nc(Nc2ccccc2)c2ccccc2n1
- RP-LC retention time: 801 s

SMILES: O=C1NC(C(=O)NC2CCCC2)Cn2cccc21 (configuration not stated)
- RP-LC retention time: 628 s

SMILES: COc1ccc(OC)c(CNC(=O)[C@@H]2[C@H](c3cc(OC)c(OC)c(OC)c3)c3cc4c(cc3[C@H](O)[C@H]2CO)OCO4)c1
- RP-LC retention time: 721 s

SMILES: c1cc(-c2nc(-c3ccnc(N4CCOCC4)c3)no2)ccn1
- RP-LC retention time: 718 s

SMILES: O=C(Nc1ccc2c(c1)CCC2)C1CCc2nc(N3CCOCC3)ncc2C1 (configuration not stated)
- RP-LC retention time: 793 s

SMILES: CCCN1C(=O)c2cc(S(=O)(=O)NCCc3cccs3)ccc2Oc2cccnc21
- RP-LC retention time: 1050 s

SMILES: COc1ccc(CNS(=O)(=O)c2ccc(-c3c(C)noc3C)cc2)cc1
- RP-LC retention time: 886 s

SMILES: O=C(NC1CC1)c1ccc2ncnc(N3CCCCC3)c2c1
- RP-LC retention time: 580 s

SMILES: Cc1nn2c(NC(=O)CSc3nnc4sc5ccccc5n34)csc2nc1=O
- RP-LC retention time: 635 s

SMILES: COCCC1(NS(C)(=O)=O)CCN(C(=O)NC(C)C)CC1
- RP-LC retention time: 588 s

SMILES: CCN(CC)C(=O)CN(C)C(=O)c1cc2c(s1)N(CC1CC1)CCCC2
- RP-LC retention time: 947 s

SMILES: CC(C)c1ccc(NC(=O)CSc2ccc(NC(=O)C3CC3)nn2)cc1
- RP-LC retention time: 834 s

SMILES: CCOC(=O)COc1ccc2c(c1)C(=O)CC1(CCN(C(C)=O)CC1)O2
- RP-LC retention time: 718 s

SMILES: CCOC(=O)c1ccc(NC(=O)N2CCCC2c2cc(C)no2)cc1 (configuration not stated)
- RP-LC retention time: 809 s

SMILES: COc1ccc(NC(=O)N2C[C@@H](F)C[C@H]2C(=O)N2CCc3ccccc3C2)cc1
- RP-LC retention time: 763 s

SMILES: COC(=O)c1cn(NC(=O)c2cc(-c3ccco3)nc3ccccc23)c(=O)c2ccccc12
- RP-LC retention time: 858 s

SMILES: Cc1ccccc1C(=O)Nc1ccccc1NC(=O)C1CCC1
- RP-LC retention time: 795 s

SMILES: CCN1CCN(CCCNC(=O)Cn2c3ccccc3c3cnn(C)c(=O)c32)CC1
- RP-LC retention time: 560 s

SMILES: CCOc1ccccc1C(=O)N1CCc2c(c(-c3nc(C4CC4)no3)nn2C)C1
- RP-LC retention time: 828 s

SMILES: Cc1cc(C)cc(NC(=O)c2cn(-c3cc(N4CCCC4)ncn3)cn2)c1
- RP-LC retention time: 972 s

SMILES: O=S(=O)(c1ccc2nncn2c1)N(Cc1cccc(F)c1)c1cccc(F)c1
- RP-LC retention time: 851 s

SMILES: CCCNC(=O)C1CCN(c2ccc(SCC(=O)Nc3ccc(S(C)(=O)=O)cc3)nn2)CC1
- RP-LC retention time: 593 s

SMILES: C=C[C@H]1CN2CC[C@H]1C[C@H]2[C@H](O)c1ccnc2ccc(OC)cc12
- RP-LC retention time: 592 s

SMILES: Cc1ccc(Nc2cc(C)nc(N3CCN(C(=O)Nc4cccc(C)c4)CC3)n2)cc1
- RP-LC retention time: 1460 s

SMILES: O=C(NCCn1nc(-c2ccco2)ccc1=O)c1ccc2c(c1)ncn2-c1ccccc1
- RP-LC retention time: 629 s

SMILES: COCC1CN(C)CC12CCN(S(=O)(=O)c1cc(F)ccc1C)CC2 (configuration not stated)
- RP-LC retention time: 661 s
